Measured values published in PubChem BioAssay (NCI).
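Cultured in 96-well plates, cells were exposed to test compound for 48 hours across five concentrations. The concentration for 50% growth inhibition is given as GI50. TGI: concentration producing complete growth inhibition.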

Tests used:
Test in all cases: NCI anticancer screen, dose series, 48 h
[1] = test system: CCRF-CEM leukemia
[2] = test system: HL-60(TB) leukemia
[3] = test system: MOLT-4 leukemia
[4] = test system: NCI-H460 lung
[5] = test system: NCI-H522 lung
[6] = test system: OVCAR-4 ovarian
[7] = test system: SN12C renal
[8] = test system: U251 CNS
[9] = test system: MDA-MB-435
[10] = test system: PC-3 prostate

Compound	TGI [1]	TGI [2]	TGI [3]	TGI [4]	TGI [5]	TGI [6]	TGI [7]	TGI [8]	GI50 [2]	GI50 [9]	TGI [9]	GI50 [6]	GI50 [10]	TGI [10]	GI50 [7]	GI50 [1]	GI50 [5]	GI50 [8]	GI50 [3]	GI50 [4]
COc1ccc(N/N=C(\CCN(C)C)c2ccccc2)cc1	23.5 µM	12.9 µM	44 µM	10.8 µM	30 µM	17.1 µM	17.2 µM	4.55 µM	–	–	–	–	–	–	–	–	–	–	–	–
CC(=O)OC1CC2Oc3ccc(C)cc3C(C)(O2)C1=O (stereo not given)	> 100 µM	> 100 µM	> 100 µM	> 100 µM	> 100 µM	–	> 100 µM	> 100 µM	–	–	–	–	–	–	–	–	–	–	–	–
O=C1c2ccccc2NC1(c1ccccc1)c1c(-c2ccccc2)[nH]c2ccccc12 (stereo not given)	> 100 µM	30.3 µM	20.6 µM	> 100 µM	–	> 100 µM	> 100 µM	> 100 µM	–	–	–	–	–	–	–	–	–	–	–	–
CCCCCCCCCCCCCCCC[N+](C)(CCO)Cc1cnc[nH]1 (stereo not given)	–	2 µM	–	–	–	56.4 µM	6.31 µM	–	0.39 µM	1.44 µM	3.81 µM	0.978 µM	0.441 µM	2.37 µM	1.45 µM	–	–	–	–	–
CC(=O)C1C(=O)NC(=O)C1=O (stereo not given)	–	–	–	> 100 µM	> 100 µM	> 100 µM	> 100 µM	> 100 µM	–	–	–	–	–	–	–	–	–	–	–	–
COc1ccc(NC(=O)CC/C(CC(=O)C(C)(C)C)=N\NC(=O)C(N)=O)cc1	> 100 µM	> 100 µM	> 100 µM	> 100 µM	–	> 100 µM	> 100 µM	> 100 µM	–	–	–	–	–	–	–	–	–	–	–	–
C#CCN(N=O)C(=O)NC(CCCNC(=O)OCc1ccccc1)C(=O)OCc1ccccc1 (stereo not given)	52 µM	42.9 µM	65.5 µM	> 100 µM	27.2 µM	> 100 µM	> 100 µM	> 100 µM	–	–	–	–	–	–	–	–	–	–	–	–
Cc1cc2cn3c4ccc(O)cc4[nH]c(=O)c3c2cc1C	1.81 µM	–	–	–	0.0697 µM	1.81 µM	–	1.07 µM	–	–	0.0121 µM	0.0675 µM	0.0542 µM	1.7 µM	–	0.0418 µM	0.0164 µM	0.026 µM	–	–
COc1ccc(Cc2cc3c(cc2OCC(=O)O)OCO3)cc1	> 100 µM	> 100 µM	> 100 µM	> 100 µM	> 100 µM	> 100 µM	> 100 µM	–	–	–	–	–	–	–	–	–	–	–	–	–
O=C(O)/C(Cl)=C(\Cl)C(=O)NC1C2CC3CC(C2)CC1C3 (stereo not given)	> 100 µM	> 100 µM	> 100 µM	–	> 100 µM	> 100 µM	> 100 µM	> 100 µM	–	–	–	–	–	–	–	–	–	–	–	–
O=C(CC1(O)C(=O)Nc2ccccc21)c1ccco1 (stereo not given)	–	> 100 µM	> 100 µM	> 100 µM	> 100 µM	> 100 µM	> 100 µM	–	–	–	–	–	–	–	–	–	–	–	–	–
COC(=O)NC1(NC(=O)OC)NC(=O)c2cc(OC)c(OC)c(OC)c2N1	> 100 µM	87.7 µM	> 100 µM	> 100 µM	41.5 µM	> 100 µM	> 100 µM	> 100 µM	–	–	–	–	–	72.3 µM	–	–	–	–	–	–
COC(=O)CCC(=O)Nc1cc(Cl)ccc1Cl	> 100 µM	> 100 µM	> 100 µM	> 100 µM	> 100 µM	> 100 µM	> 100 µM	> 100 µM	–	–	–	–	–	–	–	–	–	–	–	–
COC(=O)Nc1nc2ccc(C(=O)c3ccc(N(C)C4COC4)cc3)cc2[nH]1	> 100 µM	2.85 µM	> 100 µM	> 100 µM	4.34 µM	> 100 µM	> 100 µM	> 100 µM	0.266 µM	–	–	2.85 µM	0.379 µM	> 100 µM	0.561 µM	0.309 µM	0.337 µM	0.397 µM	0.672 µM	0.359 µM
CCOC(=O)C(=O)Nc1ccc(Cl)cc1C	> 100 µM	> 100 µM	> 100 µM	> 100 µM	> 100 µM	> 100 µM	> 100 µM	> 100 µM	–	–	–	–	–	–	–	–	–	–	–	–
CC(=O)[O-].[Mn+3].[O-]c1ccccc1C=NCCN=Cc1ccccc1[O-]	> 100 µM	> 100 µM	> 100 µM	> 100 µM	> 100 µM	> 100 µM	> 100 µM	> 100 µM	19.2 µM	–	–	> 100 µM	–	–	> 100 µM	25.1 µM	16 µM	> 100 µM	25.7 µM	44.4 µM
COc1cc(O)c2c(c1)C(=O)C=C(Cl)C2=O	> 100 µM	> 100 µM	> 100 µM	–	> 100 µM	> 100 µM	–	> 100 µM	–	–	–	–	–	–	–	–	–	–	–	–
CC(=O)O[C@H]1CCC2[C@@H]3CCC4=C(O)C(=O)C(C#N)C[C@]4(C)C3CC[C@@]21C (stereo not given in full)	> 100 µM	85.3 µM	> 100 µM	> 100 µM	–	90.9 µM	> 100 µM	> 100 µM	–	–	–	–	–	–	–	–	–	–	–	–

Compound	TGI [1]	TGI [2]	TGI [3]	TGI [4]	TGI [5]	TGI [6]	TGI [7]	TGI [8]	GI50 [2]	GI50 [9]	TGI [9]	GI50 [6]	GI50 [10]	TGI [10]	GI50 [7]	GI50 [1]	GI50 [5]	GI50 [8]	GI50 [3]	GI50 [4]
CN1C(c2ccccc2)CS(=O)(=O)CS1(=O)=O (stereo not given)	–	–	–	> 100 µM	–	> 100 µM	> 100 µM	> 100 µM	–	–	–	–	–	–	–	–	–	–	–	–
CN(CC#N)C1CCCC[C@H]1O (stereo not given in full)	> 100 µM	> 100 µM	> 100 µM	> 100 µM	> 100 µM	> 100 µM	> 100 µM	> 100 µM	–	–	–	–	–	–	–	–	–	–	–	–
CN(C)CCNC(=O)c1cccc2c(Nc3ccc(S(N)(=O)=O)cc3)c3ccccc3nc12	–	–	> 100 µM	1.96 µM	2.8 µM	5.77 µM	3.9 µM	4.69 µM	–	–	–	–	–	–	–	–	–	–	–	–
Cc1ccc(NC(=O)C(=O)CC(=O)C2CCOC2=O)c(C)c1 (stereo not given)	> 100 µM	> 100 µM	–	> 100 µM	> 100 µM	> 100 µM	> 100 µM	> 100 µM	–	–	–	–	–	–	–	–	–	–	–	–
O=S(=O)(N/N=C/c1cccc(Cl)c1Cl)c1ccccc1	> 100 µM	> 100 µM	58.1 µM	> 100 µM	–	> 100 µM	> 100 µM	> 100 µM	–	–	–	–	–	–	–	–	–	–	–	–
O=c1cc(-c2ccccc2)oc2cc(O)cc(O)c12	59.6 µM	48.3 µM	61.1 µM	40.2 µM	33 µM	> 100 µM	54.6 µM	87.5 µM	–	–	–	–	–	–	–	–	–	–	–	–
CN(CCc1ccccn1)c1nc(=[N+](C)C)ss1	> 100 µM	> 100 µM	> 100 µM	> 100 µM	> 100 µM	> 100 µM	> 100 µM	> 100 µM	–	–	–	–	–	–	–	–	–	–	–	–
CC(C)C1CC2C(=O)N(c3ccccc3)C(=O)C2c2[nH]c3ccccc3c21 (stereo not given)	54.3 µM	93.9 µM	> 100 µM	> 100 µM	–	5.63 µM	–	41.1 µM	–	–	–	–	–	–	–	–	–	–	–	–
O=C(c1ccccc1)c1oc2ccc(Br)cc2c1-c1cnn(-c2ccccc2)c1	> 100 µM	> 100 µM	> 100 µM	> 100 µM	> 100 µM	> 100 µM	> 100 µM	–	–	–	–	–	–	–	–	–	–	–	–	–
CN(C)CCSc1cccc(-c2cc(-c3cccc(SCCN(C)C)c3)nc(SCCN(C)C)n2)c1	4.8 µM	3.67 µM	4.66 µM	3.46 µM	2.98 µM	3.04 µM	24.7 µM	3.54 µM	–	–	–	–	–	–	–	–	–	–	–	–
O=C(Cc1nc2ccccc2s1)C(=O)Nc1cccc(Cl)c1	> 100 µM	> 100 µM	–	–	> 100 µM	> 100 µM	> 100 µM	> 100 µM	–	–	–	–	–	–	–	–	–	–	–	–
O=C(/C=C/C=C/c1c(C2CC2)nc2ccccc2c1-c1ccc(F)cc1)c1cccs1	> 100 µM	5.48 µM	> 100 µM	3.31 µM	9.09 µM	14.7 µM	> 100 µM	5.4 µM	1.58 µM	–	–	1.64 µM	3.99 µM	> 100 µM	2.25 µM	1.37 µM	2.52 µM	1.9 µM	1 µM	1.14 µM
O=S(=O)(SCc1ccccc1)C(c1ccccc1)c1ccccc1	> 100 µM	77 µM	43.7 µM	> 100 µM	57.8 µM	> 100 µM	68.2 µM	> 100 µM	–	–	–	–	–	–	–	–	–	–	–	–
CN(/N=C/c1cccc2cccnc12)c1ccc([N+](=O)[O-])cc1	> 100 µM	> 100 µM	> 100 µM	> 100 µM	–	–	> 100 µM	–	–	–	–	–	–	–	–	–	–	–	–	–
CC1=C(C(=O)NCc2ccccc2)C(c2ccc([N+](=O)[O-])cc2)C(C(=O)NCc2ccccc2)=C(C)N1	–	49.3 µM	–	> 100 µM	> 100 µM	47.9 µM	> 100 µM	> 100 µM	–	–	–	–	–	–	–	–	–	–	–	–
Cc1ccc(C2NC(=O)c3ccccc3N2)s1 (stereo not given)	> 100 µM	8.17 µM	> 100 µM	58.4 µM	18.6 µM	–	52.8 µM	> 100 µM	–	–	–	–	–	–	–	–	–	–	–	–
CC1=C(C(=O)Nc2cc(=O)n(C)c(=O)n2C)C(c2ccc([N+](=O)[O-])cc2)C(C(=O)Nc2cc(=O)n(C)c(=O)n2C)=C(C)N1	> 100 µM	> 100 µM	> 100 µM	> 100 µM	> 100 µM	> 100 µM	> 100 µM	> 100 µM	–	–	–	–	–	–	–	–	–	–	–	–
Cc1cc(Nc2c3ccccc3nc3ccccc23)ccc1NS(C)(=O)=O	20.3 µM	12.1 µM	9.61 µM	11.6 µM	13.1 µM	46.5 µM	20.8 µM	14 µM	3.67 µM	4.26 µM	25.4 µM	5.03 µM	–	–	3.78 µM	3.25 µM	3.3 µM	3.17 µM	3.28 µM	3.07 µM
